# Where two headings read alike, the source gives them in different places.
# Key:
# [1] = tested on: hemodynamics of anesthetised cats; assay: effects on hemodynamics of anesthetised cats (Table 1); type: in vivo, cat
# Description: The experiments were performed on male and female (2.9-3.8 kg) anaesthetized cats (urethane 200 mg/kg and chloralose 50 mg/kg, both i.p.).
# The chest was opened in the experimental animals, which were artificially respirated, and blood pressure in the carotid artery as well as general aorta blood flow were measured on physiograph DMP-46 "Narco Bio-Systems" USA.
# [2] = tested on: CaCl2-induced lethal arrhythmias in rats; assay: CaCl2-induced lethal arrhythmias in rats (Table 5); type: in vivo, albino rats; settings: for Survive (number of animals) / Survive (percent): 5 observations
# Description: These experiments were performed on male and female albino rats (190 to 230 g) anesthetized with urethane ([…], i.p.), and after 2% calcium chloride solution administration to animal foot vein ECG was registered in II standard lead.
# [3] = tested on: CaCl2-induced lethal arrhythmias in mice; assay: CaCl2-induced lethal arrhythmias in mice (Table 4); type: in vivo, albino mice; settings: for Survive (number of animals): 10 observations
# Description: This experiment was performed on male and female conscious albino mice (19-26 g) administering to their tail vein a 2% (by weight) calcium chloride solution, animal protection against lethal arrhythmia being used as an effect criterion (Table 4).
# [4] = cited from earlier work; for toxic effects: W. Linneweh, 1929
# albino mice = assay: in vivo; settings: in words
# Description: (§1) Acute toxicity was studied on male and female albino mice (19-26 g), 10 animals in a group. The substances were administered as a 10% solution orally or i.v. (with 0.004 ml/sec rate).
# in vivo = settings: mouse, in vivo
# Description: as §1
# rabbit ear blood vessel = assay: adrenaline-induced rabbit ear blood vessel spasm in the presence of L-nitro-arginine (Table 3); settings: adrenaline 3.10^-7 M and L-NO2-Arg 10 mg/l
# [5] = tested on: ischemia- and reperfusion-induced heart rhythm disturbances in rats; assay: ischemia- and reperfusion-induced heart rhythm disturbances in rats, therapeutic regimen (Table 6); type: in vivo, Wistar rats; settings: for Lethality (number of animals from total numb) / ST rise during occlusion / Ventricular fibrillation (number of animals from total numb) / Ventricular tachycardy (number of animals from total numb): 50 mg/kg total (25 injection + 25 infusion); for efficacy against ischaemia-reperfusion-induced damage and rhythm disturbances: therapeutic regimen, in words
# Description: (§2) The experiments were carried out on Wistar rats (260-330 g). During phenobarbital anesthesia (50 mg/kg, i.p.) and artificial respiration their chest was opened and the left coronary artery was ligated with 6.0 Silk Ethicon thread which was pulled out through plastic pipe. Occlusion was made by pressing the plastic pipe to the heart surface, and ischaemia stage was controlled by ECG, fixing ischaemia-induced changes in ECG. Solutions of the substances or saline were i.v. injected in two regimens:
# 2) therapeutically--1.5 min after occlusion by administering 25 mg/kg in injection and 25 mg/kg infusively. Infusion was stopped 2 min after reperfusion.
# [6] = tested on: ischemia and reperfusion-induced heart rhythm disturbances in rats; assay: ischemia and reperfusion-induced heart rhythm disturbances in rats, prophylactic regimen (Table 7); type: in vivo, Wistar rats; settings: for Lethality (number of animals from total numb) / ST rise during occlusion / Ventricular fibrillation (number of animals from total numb) / Ventricular tachycardy (number of animals from total numb): 50 mg/kg (proph.), i.v. 30 min before occlusion; for efficacy against ischaemia-reperfusion-induced damage and rhythm disturbances: prophylactic regimen, in words
# Description: as §2
# 1) prophylactically--30 min before occlusion by administration of 50 mg/kg,
# [7] = literature statements; cited from earlier work
# [8] = tested on: isolated rabbit ear blood vessel; assay: adrenaline-induced isolated rabbit ear blood vessel spasms (Table 2); settings: for Perfusion pressure, final data, max / Perfusion pressure, final data, min: after adrenaline 3.10^-7 M addition
# carnitine biosynthesis = settings: cited from earlier work; for mechanism of action: literature
smiles,measurement,setting,value
"CC(=O)OCC[N+](C)(C)C [Ach, acetyl choline]",Blood pressure changes,[1]; 0.001 mg/kg i.v.,-35%
same,Heart rate changes,[1]; 0.001 mg/kg i.v.,-20%
CCOC(=O)Nc1ccc2c(c1)N(C(=O)CCN1CCOCC1)c1ccccc1S2 [Etmozine],Protection against the control,[2]; 3 mg/kg p.o.,20%
same,Survive (number of animals),[2]; 3 mg/kg p.o.,1
same,Survive (percent),[2]; 3 mg/kg p.o.,10%
same,Protection against the control,[2]; 10 mg/kg p.o.,46%
same,Survive (number of animals),[2]; 10 mg/kg p.o.,2
same,Survive (percent),[2]; 10 mg/kg p.o.,40%
same,Protection against the control,[3]; 5 mg/kg p.o.,20%
same,Survive (number of animals),[3]; 5 mg/kg p.o.,3
same,Protection against the control,[3]; 10 mg/kg p.o.,40%
same,Survive (number of animals),[3]; 10 mg/kg p.o.,5
same,Protection against the control,[3]; 30 mg/kg p.o.,40%
same,Survive (number of animals),[3]; 30 mg/kg p.o.,5
"C[N+](C)(C)CCCC(=O)[O-] [GBB, γ-butyrobetaine]",toxic effects,[4]; listed as γ-Butyrobetaine,"accelerates respiration, causes salivation and lacrimation, pupil dilation, vasoconstriction and heart stop in diastole"
same,toxic effects,[4]; listed as γ-butyrobetaine,heart stop in diastole
same,LD50,[4]; s.c.,> 7000 mg/kg
same,Blood flow rate changes,[1]; 5.0 mg/kg i.v.,6%
same,Blood flow rate changes,[1]; 10.0 mg/kg i.v.,12%
same,acute toxicity,albino mice,practically nontoxic agent
same,LD50,in vivo; iv,1860 mg/kg
same,LD50,in vivo; po,> 4500 mg/kg
same,"Perfusion pressure, final data, max",rabbit ear blood vessel; 0.3 μM,168 mm Hg
same,"Perfusion pressure, final data, min",rabbit ear blood vessel; 0.3 μM,105 mm Hg
same,"Perfusion pressure, final data, max",rabbit ear blood vessel; 1.0 μM,165 mm Hg
same,"Perfusion pressure, final data, min",rabbit ear blood vessel; 1.0 μM,100 mm Hg
same,"Perfusion pressure, final data, max",rabbit ear blood vessel; 2.0 μM,163 mm Hg
same,"Perfusion pressure, final data, min",rabbit ear blood vessel; 2.0 μM,100 mm Hg
same,Lethality (number of animals from total numb),[5],1/10
same,ST rise during occlusion,[5],0.23 ± 0.05 mV
same,Ventricular fibrillation (number of animals from total numb),[5],4/10
same,Ventricular tachycardy (number of animals from total numb),[5],7/10
same,efficacy against ischaemia-reperfusion-induced damage and rhythm disturbances,[5],effectively protects myocardium from ischaemia-reperfusion-induced myocardium damages and ventricular fibrillations which are partially resumed after infusion termination
same,Lethality (number of animals from total numb),[6],3/8
same,ST rise during occlusion,[6],0.36 mV
same,Ventricular fibrillation (number of animals from total numb),[6],6/8
same,Ventricular tachycardy (number of animals from total numb),[6],8/8
same,efficacy against ischaemia-reperfusion-induced damage and rhythm disturbances,[6],ineffective
same,Protection against the control,[2]; 10 mg/kg p.o.,20%
same,Survive (number of animals),[2]; 10 mg/kg p.o.,1
same,Survive (percent),[2]; 10 mg/kg p.o.,20%
same,Protection against the control,[2]; 30 mg/kg p.o.,32%
same,Survive (number of animals),[2]; 30 mg/kg p.o.,1
same,Survive (percent),[2]; 30 mg/kg p.o.,20%
same,pharmacological action,[7],pharmacologically inert substance
same,"Perfusion pressure, final data, max",[8]; 0.3 μM,124 mm Hg
same,"Perfusion pressure, final data, min",[8]; 0.3 μM,76 mm Hg
same,"Perfusion pressure, final data, max",[8]; 1.0 μM,125 mm Hg
same,"Perfusion pressure, final data, min",[8]; 1.0 μM,80 mm Hg
same,"Perfusion pressure, final data, max",[8]; 2.0 μM,125 mm Hg
same,"Perfusion pressure, final data, min",[8]; 2.0 μM,78 mm Hg
same,"potency on adrenaline-induced vessel spasms relative to 3-(2,2,2-trimethylhydrazinium)propionate",[8]; isolated rabbit ear,2-3 times
same,level of carnitine biosynthesis in the organism,carnitine biosynthesis; background statement,increases the level of carnitine biosynthesis in the organism
same,Protection against the control,[3]; 8 mg/kg p.o.,10%
same,Survive (number of animals),[3]; 8 mg/kg p.o.,2
same,Protection against the control,[3]; 20 mg/kg p.o.,0%
same,Survive (number of animals),[3]; 20 mg/kg p.o.,1
same,Protection against the control,[3]; 30 mg/kg p.o.,20%
same,Survive (number of animals),[3]; 30 mg/kg p.o.,3
same,Protection against the control,[3]; 50 mg/kg p.o.,40%
same,Survive (number of animals),[3]; 50 mg/kg p.o.,5
same,Protection against the control,[3]; 100 mg/kg p.o.,30%
same,Survive (number of animals),[3]; 100 mg/kg p.o.,4
same,protection from lethal arrhythmia (cases),[3]; 50 and 100 mg/kg of γ-butyrobetaine,30-40%
"C[N+](C)(C)NCCC(=O)[O-] [M, 3-(2,2,2-Trimethylhydrazinium)propionate]",Blood flow rate changes,[1]; 5.0 mg/kg i.v.,+5%
same,Blood flow rate changes,[1]; 10.0 mg/kg i.v.,+8%
same,"Perfusion pressure, final data, max",rabbit ear blood vessel; 0.3 μM,165 mm Hg
same,"Perfusion pressure, final data, min",rabbit ear blood vessel; 0.3 μM,102 mm Hg
same,"Perfusion pressure, final data, max",rabbit ear blood vessel; 1.0 μM,163 mm Hg
same,"Perfusion pressure, final data, min",rabbit ear blood vessel; 1.0 μM,100 mm Hg
same,"Perfusion pressure, final data, max",rabbit ear blood vessel; 2.0 μM,165 mm Hg
same,"Perfusion pressure, final data, min",rabbit ear blood vessel; 2.0 μM,100 mm Hg
same,Lethality (number of animals from total numb),[5],3/10
same,ST rise during occlusion,[5],0.4 ± 0.1 mV
same,Ventricular fibrillation (number of animals from total numb),[5],8/10
same,Ventricular tachycardy (number of animals from total numb),[5],10/10
same,efficacy against ischaemia-reperfusion-induced damage and rhythm disturbances,[5],relatively low
same,Lethality (number of animals from total numb),[6],2/8
same,ST rise during occlusion,[6],0.31 mV
same,Ventricular fibrillation (number of animals from total numb),[6],5/8
same,Ventricular tachycardy (number of animals from total numb),[6],7/8
same,efficacy against ischaemia-reperfusion-induced damage and rhythm disturbances,[6],"markedly better in the case of prophylaxis, i.e., 30 min. before occlusion when it protects myocardium from ischemia increase during occlusion"
same,Protection against the control,[2]; 10 mg/kg p.o.,15%
same,Survive (number of animals),[2]; 10 mg/kg p.o.,1
same,Survive (percent),[2]; 10 mg/kg p.o.,20%
same,Protection against the control,[2]; 20 mg/kg p.o.,23%
same,Survive (number of animals),[2]; 20 mg/kg p.o.,1
same,Survive (percent),[2]; 20 mg/kg p.o.,20%
same,Protection against the control,[2]; 30 mg/kg p.o.,25%
same,Survive (number of animals),[2]; 30 mg/kg p.o.,1
same,Survive (percent),[2]; 30 mg/kg p.o.,20%
same,"Perfusion pressure, final data, max",[8]; 0.3 μM,125 mm Hg
same,"Perfusion pressure, final data, min",[8]; 0.3 μM,80 mm Hg
same,"Perfusion pressure, final data, max",[8]; 1.0 μM,123 mm Hg
same,"Perfusion pressure, final data, min",[8]; 1.0 μM,77 mm Hg
same,"Perfusion pressure, final data, max",[8]; 2.0 μM,126 mm Hg
same,"Perfusion pressure, final data, min",[8]; 2.0 μM,80 mm Hg
same,mechanism of action,carnitine biosynthesis,limitation of carnitine biosynthesis rate and the related long-chain fatty acid Transport limitation through mitochondria membranes
same,mechanism of action,"carnitine biosynthesis; listed as 3-(2,2,2-trimethylhydrazinium)-propionate (THP)",γ-butyrobetaine hydroxylase inhibitor
same,Protection against the control,[3]; 8 mg/kg p.o.,10%
same,Survive (number of animals),[3]; 8 mg/kg p.o.,2
same,Protection against the control,[3]; 20 mg/kg p.o.,20%
same,Survive (number of animals),[3]; 20 mg/kg p.o.,3
same,Protection against the control,[3]; 30 mg/kg p.o.,30%
same,Survive (number of animals),[3]; 30 mg/kg p.o.,4
same,Protection against the control,[3]; 50 mg/kg p.o.,30%
same,Survive (number of animals),[3]; 50 mg/kg p.o.,4
same,Protection against the control,[3]; 100 mg/kg p.o.,40%
same,Survive (number of animals),[3]; 100 mg/kg p.o.,5
C=C[C@H]1C[N@@]2CC[C@H]1C[C@@H]2[C@@H](O)c1ccnc2ccc(OC)cc12 [Quinidine],Protection against the control,[2]; 3 mg/kg p.o.,25%
same,Survive (number of animals),[2]; 3 mg/kg p.o.,1
same,Survive (percent),[2]; 3 mg/kg p.o.,20%
same,Protection against the control,[2]; 10 mg/kg p.o.,46%
same,Survive (number of animals),[2]; 10 mg/kg p.o.,2
same,Survive (percent),[2]; 10 mg/kg p.o.,40%
same,Protection against the control,[3]; 10 mg/kg p.o.,10%
same,Survive (number of animals),[3]; 10 mg/kg p.o.,2
same,Protection against the control,[3]; 30 mg/kg p.o.,30%
same,Survive (number of animals),[3]; 30 mg/kg p.o.,4
same,Protection against the control,[3]; 50 mg/kg p.o.,50%
same,Survive (number of animals),[3]; 50 mg/kg p.o.,6
COC(=O)CCC[N+](C)(C)C [methyl ester],pharmacological action,[7],possesses cholinergic properties

# Reference: patent publication US5859056A, “Pharmaceutical composition for treating cardiovascular diseases containing 3-(2,2,2-trimethylhydrazinium)propionate and γ-butyrobetaine” (priority 1995, dated 1999)
